Measured values reported in patent US5077296A, “Method for treating equine navicular disease with pentoxifylline, and composition containing pentoxifylline for administrating to horses” (priority 1987, dated 1991).
Where “and” joins values, the source holds several entries; their conditions need not be identical. Equal values may be shown once.

Experiments:
[1] = system: navicular disease; experiment: Conventional navicular disease treatments (background discussion); assay type: in vivo; conditions: horse #18 (Molson), intermittent lameness over previous 5 months
Text: To illustrate the advantages of pentoxifylline over existing navicular disease treatments, the following conventional treatments will be discussed herein.

[2] = system: navicular disease; conditions: cited from earlier work
[3] = system: navicular disease; experiment: Efficacy of oral pentoxifylline in the treatment of navicular disease in horses (6 week lameness study); assay type: in vivo, horse
Text: As previously mentioned, it is preferred to administer daily doses of pentoxifylline for a prescribed period of time in order to alleviate lameness caused by navicular disease. […] It is preferred to administer the daily doses tid. In this regard, powder, tablet or capsule formulations, containing between 2-10 gm of pentoxifylline should be administered for this purpose. As previously indicated, the amount of daily doses is dependent on a variety of factors, including the size of the horse being treated.
The purpose of the following study was to assess the efficacy of pentoxifylline in the treatment of navicular disease in horses; to establish an appropriate dosage and treatment interval, and to identify adverse effects from treatment.
Twenty-seven horses entered the study between September 1985 and March 1986.
Pentoxifylline was supplied as an oral powder prepared in individual plastic vials of 2 gm Pentoxifylline mixed with 4 gm icing sugar, to ensure palatability.
Diagnosis of navicular disease was made using the following criteria:
1) history - including clinical and previous treatment history.
lameness observed at walk and while lunging to the left and to the right.
3) diagnostic posterior digital nerve block
horses not sound following bilateral desensitization of the posterior digital nerves were not admitted into the study
4) radiographic examination of confirmation of disease as noted by classical navicular lesions, on a minimum of three views
Treatment was administered daily for 42 days.
Horses were characterized as either severely lame, moderately lame, or slightly lame, as follows:
Treatment response was classified as excellent, good, fair, or poor.
Soundness was subjectively rated by the veterinarian on a percent basis. Percent soundness at the study's onset was subtracted from percent soundness at the study's conclusion, and this difference was plotted as a histogram (graph 2), to show the magnitude of improvement with the 6 week course of treatment. At week 4 there was an average of 57% improvement. For instance, horse number 3 was rated as 25% sound at the onset of the study, and 100% sound after six weeks, yielding an improvement of 75%.

[4] = system: navicular disease; experiment: Long term efficacy: follow up evaluation of soundness after termination of the 6 week treatment; assay type: in vivo, horse
Text: Ten horses received a further follow up evaluation after termination of the 6 week treatment period. The horses are listed below, along with the date of visit (weeks post-initiation of study) and the soundness evaluation.

[5] = in vivo
Text: (§1) Follow-up observations occurred weekly during the six week treatment period, and for a final time approximately 4 weeks after the 6 week treatment period was over. The follow-up visits consisted of a lameness evaluation on the lunge line, at the walk and at rest. Owners/trainers were asked to report any side effects observed that may or may not have been related to Pentoxifylline therapy, and any other problems that had arisen during the week, concurrent medications administered for other causes, and the horse's progress while being exercised. Blood samples were drawn prior to first treatment, at 3 weeks, and at 6 weeks for routine hematological and clinical chemistry profiles. Samples were drawn prior to lameness examination after the horse had been resting quietly in the stall. Most samples were drawn early in the afternoon, and were immediately submitted to Metro Animal Laboratories, Bloor Street, Toronto.

[6] = Side effects during the study
Text: as §1

[7] = cited from earlier work
[8] = duration of lameness 2 years-5 years (5)
[9] = duration of lameness 5 years (4)
[10] = duration of lameness 6 months (7)
[11] = duration of lameness <6 months, >2 years (11)
[12] = lameness at onset moderate (11)

## CCCCC1C(=O)N(c2ccccc2)N(c2ccccc2)C1=O [phenylbutazone]
[1]
  response to previous treatment: responded
[2]; in vivo
  side effects: risk of gastric and cecal ulcers and kidney damage

## CC(=O)CC(c1ccccc1)c1c(O)c2ccccc2oc1=O (racemic) [Warfarin]
[2]; accidental lacerations or injuries
  safety disadvantage: can be fatal due to hemmorrhage

## CC(COc1ccccc1)NC(C)C(O)c1ccc(O)cc1 (stereo not shown) [Isoxsuorine]
[2]; generic, unpredictable results
  efficacy: Approximately 50%

## CC(=O)CCCCn1c(=O)c2c(ncn2C)n(C)c1=O [pentoxifylline, 1-(5-oxohexyl)-3,7-dimethylxanthine]
[3]; 1 week
  response over time: evident at 1 week
[3]; 2 and 3 weeks
  response over time: marked at 2 and 3 weeks
[3]; 2 gm bid
  response at dose: not considered consistently optimal
[3]; 6 gram dosage divided tid
  response at dose: achieved the best results
[3]; between 4 and 6 weeks
  response over time: did not regress between 4 and 6 weeks
[3]; cases of greater than 5 years duration, 4 horses
  excellent responses, % of horses: 50%
[3]; cases of greater than 5 years duration, out of 4 horses
  excellent responses, number of horses: 2 horses
[3]; daily doses between 6 gm and 30 gm for 4-6 weeks
  effect on navicular lameness: effective in completely eliminating navicular lameness
[3]; [8]
  Response excellent, number of horses: 2 horses
  Response good, number of horses: 1 horses
  Response poor, number of horses: 1 horses
[3]; [9]
  Response excellent, number of horses: 2 horses
  Response fair, number of horses: 1 horses
  Response good, number of horses: 1 horses
[3]; [10]
  Response excellent, number of horses: 4 horses
  Response good, number of horses: 1 horses
  Response poor, number of horses: 1 horses
[3]; [11]
  Response excellent, number of horses: 7 horses
  Response fair, number of horses: 1 horses
  Response good, number of horses: 2 horses
  Response poor, number of horses: 1 horses
[3]; duration of lameness up to two years, 18 horses
  excellent responses, % of horses: 61%
[3]; duration of lameness up to two years, out of 18 horses
  excellent responses, number of horses: 11 horses
[3]; horse #9 (It's Casual), six week course, previous bilateral neurectomy
  treatment response: never showed significant improvement
[3]; horse #15 (Cheska)
  treatment assessment: refractory to pentoxifylline treatment
[3]; horse #15 (Cheska), end of 4 weeks, dosage increased to 2 gm tid
  evaluated sounder: 90%
[3]; horse #15 (Cheska), first 3 weeks, 2 gm bid, drug not administered properly
  treatment response: virtually no response
[3]; horse #15 (Cheska), weeks 5 and 6, after jumping in 4th week
  lameness: as lame as at the beginning
[3]; horse #18 (Molson), irregular treatment
  treatment assessment: refractory to treatment
[3]; horse #18 (Molson), week 3 and week 5
  treatment response: marked improvement
[3]; horse #18 (Molson), week 6, inconsistent drug administration
  lameness: as lame as at the onset of the study
[3]; horse number 3, 25% sound at onset
  percent soundness after six weeks: 100%
[3]; horse number 3, six weeks vs onset
  improvement in percent soundness: 75%
[3]; horses with moderate lameness
  response by lameness at onset: preponderance of excellent responses
[3]; [12]
  Response excellent, number of horses: 7 horses
  Response fair, number of horses: 2 horses
  Response good, number of horses: 1 horses
[3]; lameness at onset severe (8)
  Response good, number of horses: 1 horses
  Response poor, number of horses: 3 horses
[3]; lameness at onset slight (2)
  Response good, number of horses: 2 horses
[3]; lameness at onset slight-moderate (6)
  Response excellent, number of horses: 6 horses
[3]; n = 25, oral, 42 days
  Response fair, number of horses: 2 horses
  Response good, number of horses: 5 horses
  Response poor, number of horses: 3 horses
[3]; n = 25, oral, 42 days, 2 gm bid or tid
  Response excellent, number of horses: 15 horses
[3]; oral, 4 to 6 week treatment
  Response excellent, % of horses: 63%
  Response fair, % of horses: 8%
  Response good, % of horses: 20% and 17%
[3]; oral, 42 days
  Response poor, % of horses: 13%
[3]; response over time, graph 1
  time of maximal response: 4 weeks
[3]; varying severity and duration
  effect on lameness of navicular disease: effective in alleviating the lameness
[3]; week 4, subjective rating by veterinarian, difference from onset
  average improvement in percent soundness: 57%
[4]; 2 weeks after cessation, Innovator, Capital Gains, Ensign
  horses judged to be sore again after cessation of treatment: Three horses
[4]; horse 1 Jake, 9 weeks post-initiation
  follow up soundness: 80 % sound
[4]; horse 1 Jake, 11 weeks, being ridden
  follow up soundness: still sound
[4]; horse 1 Jake, 20 weeks, being ridden
  follow up soundness: 100 % sound
[4]; horse 1 Jake, greater than 6 weeks
  Status: Improved
[4]; horse 2 Lucky Lion, 2 gm once per day maintenance at 10 weeks
  Status: Improved
[4]; horse 3 Remeny
  Status: Improved
[4]; horse 3 Remeny, 12 weeks
  follow up soundness: hunting sound
[4]; horse 3 Remeny, 18 weeks
  follow up soundness: very sound
[4]; horse 4 Ensign
  Status: Same
[4]; horse 4 Ensign, 8 weeks
  follow up soundness: sore RF
[4]; horse 4 Ensign, 11 weeks, when given 2 gm/day
  follow up soundness: sound again
[4]; horse 5 Wessex
  Status: Improved
[4]; horse 5 Wessex, 15 weeks, compared with end of the 6 weeks
  follow up soundness: sounder than
[4]; horse 11 Capital Gains
  Status: Improved
[4]; horse 11 Capital Gains, 8 weeks, without drug
  follow up soundness: less sound
[4]; horse 13 Peaches 'N Cream
  Status: Same
[4]; horse 13 Peaches 'N Cream, 11 weeks, compared with when entered study
  follow up soundness: as sound
[4]; horse 14 Cash in McCue
  Status: Improved
[4]; horse 14 Cash in McCue, 12 weeks
  follow up soundness: 100 % sound
[4]; horse 16 B. E. Skipper
  Status: Improved
[4]; horse 16 B. E. Skipper, 11 weeks, looks sound in field
  follow up soundness in field: 100 % sound
[4]; horse 16 B. E. Skipper, 11 weeks, riding again
  follow up soundness: 90 % sounder
[4]; horse 20 Innovator
  Status: Worse
[4]; horse 20 Innovator, 7 weeks
  follow up soundness to LT: 80 % sounder
  follow up soundness to RT: 90 % sounder
[4]; horse 20 Innovator, 9 weeks, compared with before treatment
  follow up lameness: as lame at 9 weeks as he had been prior to treatment
[4]; of 10 horses followed up
  horses considered sounder than at the end of the 6 week treatment period: Seven of these 10 horses
[4]; other horses
  pattern when drug administration ceased: regressed rapidly when treatment ended
[4]; some cases
  pattern when drug administration ceased: maintained the improvement noted at 6 weeks
[5]
  Baso mean: 0.5%
  Cl mean: 98.9 mmol/L
  Clinical chemistry values vs equine reference range: within the reference range for the equine species
  Hematology values vs normal limits: within normal limits throughout the study
  Mean clinical chemistry values vs baseline: did not differ significantly
  Number of horses with platelets increased since baseline: 20 horses
  Platelets increase: 4,520
  clinical effect on blood chemistry: no clinical effect
  horses with lower platelet count at week 6 than at week 3: 13 horses
[6]; horse 14 Cash in McCue, after 2 weeks
  Sweating episodes: 5 episodes
[6]; horse 15 Cheska, RF at week 6
  Stocked up, number of horses: 1 horses
[6]; horse 23 Greek Anthem, between weeks 2 and 3, previous history of colic
  Colic, number of horses: 1 horses
[6]; horses 14 and 20
  Sweating, number of horses: 2 horses
[6]; in vivo
  Colic, relation to drug: unrelated
  Stocked up, relation to drug: unrelated
  harmful side effects: have not been identified
  horses with unusual occurrences: Four horses
[6]; throughout the study
  instances judged drug-related side effect: 1
[7]; human side effect
  Sweating in humans: occasional human side effect
[7]; lag in horses said to be similar
  lag period to maximum response in man: two week period
